The text below walks through data of a melting point compilation (Tetko et al.; mined from patent text by program, amines drawn as free bases though some values may be those of a salt).

`CNC(=C[N+](=O)[O-])NCCCCOc1cccc(CCN(C)C)c1`: the melting point – broadly, the temperature of the solid-liquid transition – was 59 to 63 °C. The value for `CCOC(=O)c1c(N2CCN(C(=O)c3cccs3)CC2)c2cscc2[nH]c1=O` was 282 °C; that for `C=C(F)C(=O)Oc1c(Cl)c(Cl)c(Cl)c(Cl)c1Cl` was 90 to 92 °C. The compound `CC(C)(C(=O)O)n1c(=O)[nH]c2cccc(F)c2c1=O` had a melting point of 258 to 260 °C.

Consider `O=C(O)CS(=O)(=O)C12CC3CC(CC(C3)C1)C2`, for which the melting point lay in the range of 158 to 162 °C. With `COc1ccc(NCC(=O)N2CCC(Cc3ccc(F)cc3)CC2)cc1`, the melting point was 141 to 143 °C. The value for `CC(C)(C)C(=O)c1ccc(C(=O)NC(=O)c2ccc(F)cc2)cc1` was 100 to 101 °C.

For `CCOC(=O)c1ccc(N2CCc3[nH]c4c(cnc5cc(Cl)ccc54)c3C2)cc1`, the melting point was 241 to 243 °C. The value for `O=C1N(c2cc(Cl)nc(Cl)c2)C(=O)[C@@]2(Cc3ccc(OC(F)(F)F)cc3)C[C@H](n3cccc3)CN12` was 130 °C; that for `Cc1ccc2ncc(C)cc2c1` was 50 °C. The value for `COC(=O)C1OC(OC(=N)C(Cl)(Cl)Cl)C(OC(=O)C(C)C)C(OC(=O)C(C)C)C1OC(=O)C(C)C` (stereo not given) was 108 °C. The value for `CCOC(=O)Cc1sc(Sc2ncccc2C(=O)OCC)nc1C` was 181 to 183 °C; that for `CC(C)n1nc(-c2c(-c3ccccc3)nn3ccc(N4CCN(c5ccccn5)CC4)cc23)ccc1=O` was 221 to 222 °C; that for `Cc1c(-c2ccc(F)cc2)n(Cc2ccc(OCCBr)cc2)c2ccc(OCc3ccccc3)cc12` was 114 to 116 °C. The compound `Cc1cc(F)cc(-c2ccc3c(c2)C2(C=N3)CCCCC2)c1` came in with a melting point of 180 to 182 °C. The result for `O=C1CC(c2ccccc2Cl)Cc2nccc(Cl)c21` (stereo not given) reads 130 to 131 °C; that for `Cc1cnc(NC(=O)C(C)C)o1`, 109 to 110 °C; that for `O=c1ccn(-c2cc(Cl)ccc2Cl)[nH]1`, 201 to 202 °C. With `CN(C)c1ccc(-n2c(CC(=O)O)c(C(=O)O)c3cc(Oc4ccc(OC(F)(F)F)cc4)ccc32)cc1`, the melting point fell in the range of 188 to 192 °C.

`CCCCc1nc2c(N)nc3cccnc3c2n1CCNC(=O)Cc1cccc(O)c1` gave a melting point of 208 to 210 °C. Compound `O=C1NCC2(CCNCC2)O1` had a melting point of 95 to 96 °C. `O=C1NC(=Cc2c(Cl)cccc2Cl)C(=O)C1=NO`: the melting point is 232 °C. On to `CCN(CC)CC1CCCCN1CCNC(=O)N1c2cc(Cl)ccc2C(=O)Nc2cccnc21` (stereo not given), for which the melting point lay in the range of 169 to 170 °C.

Turning to `O=C(O)C(=O)c1ccc(OCC(=O)N2CCN(c3ccccc3)CC2)cc1`, the melting point was 188 to 192 °C.

The compound `Cc1cc(NC(=O)c2cn(-c3ccccc3)c3ccccc3c2=O)no1` returned a melting point of 163 to 164 °C. The value for `C=C(C)CN1C[C@H](C)Nc2c(cc(Cl)cc2[N+](=O)[O-])C1=O` was 66.5 °C; that for `CCCn1nc(C(F)(F)CCC)nc1Cc1ccc(-c2ccccc2-c2nnn[nH]2)nc1` was 140 to 141 °C; that for `CCC(=O)NCC1CC1c1cccc2nc(C)nn12` (stereo not given) was 118 to 119 °C. The value for `Fc1cccc(NCc2nnc(-c3ccc4c(c3)CCO4)o2)c1` was 166 to 167 °C; that for `CNC(=O)c1ccccc1Sc1ccc(F)cc1[N+](=O)[O-]` was 111 to 113 °C. Regarding `COc1nc(OC)nc(OC(C(=O)OCc2ccccc2)C(C)(C)C)n1` (stereo not given), the melting point lay in the range of 63 to 66 °C. The result for `O=Cc1csc(N2CCCCC2)n1` reads 68 to 69 °C; that for `N#Cc1cccc(-c2cc(-c3ccc(C#N)cc3Cl)no2)c1`, 221 to 223 °C; that for `CC(=O)CC(=O)OCCCN1C(=O)c2ccccc2C1=O`, 67 to 71 °C. The result for `COc1ccc2c(c1)c(CC(=O)OCC(=O)O)c(C)n2C(=O)c1ccc(F)c(F)c1` reads 128 to 129 °C.

`O=C(O)CCCc1oc(Cl)nc1-c1ccc(Cl)cc1`: the melting point is 150 to 151 °C. `COC(=O)NC1CCC(Nc2ncc3ncnc(Nc4ccc(F)c(Cl)c4)c3n2)CC1` (stereo not given) had a melting point of 230 to 235 °C. The value for `CC1=NOC(c2c(S(C)(=O)=O)ccc(C(=O)O)c2Cl)C1` (stereo not given) was 175 °C; that for `Cc1ncc([N+](=O)[O-])n1CCN1C(=O)C2CC=CCC2C1=O` (stereo not given) was 118 to 123 °C; that for `CC[C@@H](Cc1ccc(OC)c(C(=O)NCc2ccccc2Oc2ccc(F)cc2)c1)C(=O)O` was 95 to 96 °C.

On to `CCOC(=O)c1c[nH]c(Br)c1-c1cccc(F)c1`, for which the melting point lay within 114 to 117 °C.

`CCOC(=O)c1cnn2c1nc(N)c1cnc3c(cnn3CC)c12` gave a melting point of 331 to 332 °C. `CCOCCOc1ccc(COc2ccc3c(c2)C=C(C(=O)O)CCS3(=O)=O)cc1` returned a melting point of 256 to 258 °C. The value for `Cc1cc(N)nc(CCc2nc3cc(-c4ccc(S(=O)(=O)N5CCN(C)CC5)cc4)cnc3[nH]2)c1` was 135 °C; that for `COc1ccccc1C1(Cl)C(=O)Nc2cc(C)c(Cl)cc21` (stereo not given) was 254 to 256 °C. The result for `CCCCC(C(=O)c1ccc(Cl)cc1)n1cncn1` (stereo not given) reads 81 to 83 °C. The result for `CC(Oc1ccc(Oc2ccc(C(F)(F)F)cc2)cc1)C(N)=O` (stereo not given) reads 147 to 149 °C; that for `O=[N+]([O-])c1cc(NCCO)ccc1NCC(F)(F)F`, 93 to 95 °C; that for `CNC(=O)c1ccccc1Nc1nc(Nc2ccc3c(c2)CCN(CC(F)(F)F)CC3)ncc1Cl`, 177 to 190 °C. The compound `COc1c([N+](=O)[O-])cc(Br)c2c1C(=CC#N)CC2` registered a melting point of 156 to 158 °C. Consider `COc1ccc2sn(C(C)(C)C)c(=O)c2c1`, for which the melting point fell in the range of 92 to 94 °C. The value for `COc1ccc2c3c([nH]c2c1)C(=O)C(CC1CCN(C(=O)OC(C)(C)C)CC1)C3` (stereo not given) was 192 to 193 °C; that for `CCOc1ccc(C2=NN(c3ccc(C(=O)N4CCN(c5nc(-c6ccccc6)ns5)CC4)cc3)C(=O)[C@@H]3CC=CC[C@H]23)cc1OCC` was 168 to 169 °C; that for `CC(C)(C)OC(=O)N1CCC[C@H]1COc1cccc2[nH]ccc12` was 40 to 41 °C. As to `C1=CC2=NCCN2C=C1`, the melting point was in the range of 178 to 180 °C. The result for `COC(=O)C(=Cc1ccc2c(c1)OCO2)C(=O)c1cccc(OCc2ccccc2)c1` reads 116 to 118 °C.

`COc1ccc(C=CC(=O)O)cc1-c1cc2c(cc1OCCCCCCCO)C(C)(C)CCC2(C)C`: the melting point fell in the range of 105 to 107 °C. The value for `Clc1ccc2c(c1)Cc1ccc(-c3nnn[nH]3)cc1S2` was 257 °C; that for `CCCCNC(=O)Oc1ccc(C(O)(CC)c2ccc(Cl)cc2)cc1` (stereo not given) was 78 to 79 °C. The value for `CSc1nc(C(C)(C)C)nn1C(=O)N(C)C` was 51 to 53 °C; that for `CCCCn1cc(/C=C(\Cc2cc3c(cc2OC)OCO3)C(=O)O)c(-c2ccc(OC)cc2OCc2ccccc2C(=O)O)n1` was 226 to 227 °C; that for `COC(=O)C1=C(C)NC(C)=C(C(=O)OCC2CCCO2)C1c1ccccc1Cl` (stereo not given) was 165 to 167 °C. The result for `CC(CC(=O)Nc1cc(Cc2n[nH]c(=O)c3ccccc23)ccc1F)C(=O)O` (stereo not given) reads 140 to 144 °C.

`CC(CSC(=O)c1ccccc1)C(=O)N1C(C(=O)O)CC2CCCCC21` (stereo not given): the melting point lay within 184 to 186 °C.

Compound `CCCn1c(=O)c2[nH]c(C3CCC(C(=O)OC)C3)nc2n(CCC)c1=O` (stereo not given) showed a melting point of 188 to 194 °C. The value for `COc1cc2[nH]c(S)nc2cc1C` was greater than 310 °C; that for `COC(=O)c1nn(-c2ccccc2F)cc(OC)c1=O` was 155 to 157 °C. The value for `Cc1cccc(C(=O)c2[nH]c3cc(Cl)ccc3c2N)c1` was 80 to 88 °C; that for `CCc1nc2c(N)nc3ccc(OCc4ccccc4)cc3c2n1CCCCNC(=O)N1CCOCC1` was 190 to 191 °C.

For the compound `Cc1nc(Cl)c2c(C)c(C)n(-c3c(C)cc(C)c4nsnc34)c2n1`, the melting point was 169 to 171 °C. The result for `C=CCOC(=O)c1ccc(C(=O)NCc2ccc3c(c2CO)C(C)(C)CCC3(C)C)cc1` reads 140 to 145 °C; that for `COc1cc2c(cc1O)C(Cc1cc(Cl)ccc1[N+](=O)[O-])N(C)CC2` (stereo not given), 123 to 126 °C; that for `CC1(C)CCC(O)(c2ccc(=O)[nH]c2)CC1`, 210 to 211 °C.

Take `Nc1ccccc1C=C1c2ccccc2CCc2ccccc21`: the melting point was found to be 145 °C.

In turn, `O=C(O)CCCCCCCNS(=O)(=O)c1cccc(Cl)c1` yielded a melting point of 85 to 86 °C. The result for `CCCCOC(=O)Nc1cccc(C(C)=O)c1` reads 59 to 60 °C; that for `Nc1nnnc(-c2c[nH]nn2)c1-c1cnnnn1`, 215 °C; that for `Cc1cc(Cl)cc2[nH]c(=O)c(=O)[nH]c12`, greater than 250 °C. The result for `COC(=O)C(Cc1ccc(OC)c(C(=O)NCc2ccc(C(F)(F)F)cc2)c1)S(C)(=O)=O` (stereo not given) reads 144 to 145 °C; that for `Cc1cccc(Sc2ccc3c(c2)CCC2N(C)C(=O)CCC32C)c1` (single isomer, unassigned; (+)), 103 to 104 °C. The value for `CC1(C)CC(C)(C)CC(CCCc2ccccc2)(NC(=O)CCl)C1` was 83 to 85 °C; that for `COc1cccc(NC(=O)Nc2ccc(N3CCN(C(=O)Nc4ccc(OCCO)cc4Cl)CC3)cc2)c1` was 198 to 201 °C. `N#Cc1c(N2CCN(C(=O)c3cccs3)CC2)c2cscc2n(CC(=O)c2ccccc2)c1=O` came in with a melting point of 308 °C.

`NS(=O)(=O)c1ccc(-c2oc(C(F)(F)F)nc2-c2ccccc2)cc1`: the melting point is 137 to 138 °C. The result for `CCOC(=O)CCCOc1ccc(-c2ccc(OCC)cc2)cc1C=O` reads 69 to 70 °C; that for `Cc1cn2c(n1)-c1ccccc1Nc1ccccc1-2`, 232 to 236 °C. The value for `CS(=O)c1nnc2n1C=Cc1cc(Cl)ccc1C2` (stereo not given) was 183 to 185 °C; that for `CC1CC(=O)c2c(ccc(Cl)c2Cl)O1` (stereo not given) was 135 to 140 °C; that for `c1ccc(N2CCN(Cc3ccc4ccccc4c3)CC2)nc1` was 124 to 126 °C. The value for `NC(=O)CCCCn1cnc(NC(N)=NCC(F)(F)F)n1` was 162 to 164 °C.
